Measurements from US20250049930A1, “PROTAC MOLECULES TARGETING FOXP3 AND USES THEREOF” (CEDARS-SINAI MEDICAL CENTER, priority 2022, published 2025).
Residues, ends and D or L forms follow the SMILES beside them. *: point of attachment. X1 = O=C1CCC(N2C(=O)c3cccc(*)c3C2=O)C(=O)N1; PEG4 = NCCOCCOCCOCCOCCC(=O)O

What was measured:
FoxP3 = target: T1, FoxP3 (Mus musculus, UniProt Q99JB6); test: FoxP3 positive CD4+ cells in peripheral blood and spleen of mice after PF administration; format: in vivo
T1 construct: from tissue; host or cells: peripheral blood and spleen of mice
T1 sequence (Q99JB6 1-429): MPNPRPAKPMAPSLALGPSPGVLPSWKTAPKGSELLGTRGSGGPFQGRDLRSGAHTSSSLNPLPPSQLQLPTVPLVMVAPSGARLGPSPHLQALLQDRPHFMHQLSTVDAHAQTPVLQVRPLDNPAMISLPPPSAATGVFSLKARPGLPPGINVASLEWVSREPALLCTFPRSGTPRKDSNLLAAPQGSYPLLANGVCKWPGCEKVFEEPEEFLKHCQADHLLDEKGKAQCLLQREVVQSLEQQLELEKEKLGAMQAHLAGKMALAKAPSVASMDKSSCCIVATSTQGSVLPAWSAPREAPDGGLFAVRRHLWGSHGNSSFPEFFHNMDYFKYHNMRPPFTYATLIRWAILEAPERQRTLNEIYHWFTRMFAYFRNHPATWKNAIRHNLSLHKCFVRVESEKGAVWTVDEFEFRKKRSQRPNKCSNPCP
Experimental: FIGS. 2A-2E depict that a proteolysis-targeting chimera (PROTAC) targeting FoxP3 (PF) degraded FoxP3 in vitro and in vivo. P-FoxP3 forms a ternary complex with cereblon and FoxP3. Surface plasmon resonance (SPR) assay was used to measure the equilibrium dissociation constant (KD) for the ternary complex consisting of cereblon, P-FoxP3 and FoxP3 (FIG. 2A). SPR assay was used to measure the KD for the binary complex consisting of cereblon and P-FoxP3 (FIG. 2B). Mouse splenocytes were treated in vitro with varying PF concentrations and percent of CD4+ cells staining for intracellular FoxP3 was assessed by flow cytometry. (FIG. 2C). Mice received 0.1 mmole of PF intraperitoneally (i.p.) (FIGS. 2D and 2E). 72 hours later, FoxP3 positive CD4+ cells in peripheral blood and spleen were assessed by flow cytometry (FIG. 2D). FoxP3 positive CD4+ cells in peripheral blood were assessed by flow cytometry at various timepoints following PF administration (FIG. 2E). Representative results from duplicate experiments are shown.
To assess T cells in mice, CD4+ FoxP3+ cells from serial peripheral blood draws were assessed by flow cytometry. To assess lymphocytes in mice treated with various therapies, lymph nodes and spleens were harvested to make single-cell suspensions that were activated by a CA9 peptide (AYEQLLSHL) for 4 days, and then flow cytometry was used to assess CD4, CD8, IFNγ, TNFα, CD62L CD44, and Eomes.
To determine if PF results in the degradation of FoxP3, mouse splenocytes were treated in vitro with varying concentrations of PF and percent of CD4+ cells staining for intracellular FoxP3 was assessed by flow cytometry. […] The next step was to determine if PF can decrease FoxP3 in vivo. […] 72 hours later, FoxP3 positive CD4+ cells in peripheral blood and spleen were assessed by flow cytometry. […] To understand the time course of FoxP3 decrease, serial blood draws were assessed after a single injection of PF (FIG. 2E). FoxP3 positive CD4+ cells in peripheral blood were assessed by flow cytometry at various timepoints following the PF administration. […]

Tregs = test: Treg immunosuppression co-culture assay with mouse splenocytes (CFSE dilution, TNFα); format: cell-based; settings: mouse CD4+ splenocytes treated 72 hours, co-cultured with effector cells stimulated with αCD3 and αCD28
Experimental: FIGS. 3A-3D depict that PF decreased the immunosuppressive function of Tregs in vitro and decreased tumor growth in mice. To treat Tregs, CD4+ splenocytes were isolated and treated with PF or various controls for 72 hours. To assess the immunosuppressive effects of these cells, they were washed and co-cultured with effector cells, which were stimulated with antibodies to CD3 and CD28 in vitro (FIGS. 3A-3C). CD8 proliferation was measured using a CFSE dilution assay. To assess CD8+ effector cells, CD4 negative splenocytes were CFSE labeled and CFSE dilution was measured in CD8+ cells by flow cytometry (FIG. 3A). In the same experiment, CD8+ lymphocyte activation was assessed by measuring TNFα (FIG. 3B). Also, CD4+ lymphocyte activation was assessed by measuring TNFα (FIG. 3C). Mice tumors were established by injection RENCA cells subcutaneously in the flank of Balb/C mice (5-7 mice per group) (FIG. 3D). 10 days later, mice were treated i.p., twice a week throughout the experiment, with the indicated drugs and tumor growth was monitored. Pomalidomide conjugated to (PEG)4 (PROTAC-control; PC) and P60 served as controls. […]
To assess T cell activation in vitro, single suspension of mouse splenocytes were separated into CD4 positive (+) and negative (−) cells using EasySep Mouse CD4+ selection kit (STEMCELL technologies, Vancouver, BC, Canada). […] To study effector cell function, CD4+ and CD4− cells were cocultured (1.2 ratio) with treated-Treg and stimulated with αCD3 (10 μg/mL) and αCD28 (5 μg/mL) for 3 days; percent of CD4+ or CD8+ cells staining for intracellular FoxP3, CFSE, or TNFα were assessed by flow cytometry (LSR II, BD Biosciences, San Jose, CA 95131).
Tregs play a central role in suppressing and regulating the immune response. […] CD8 proliferation was measured using a CFSE dilution assay. To assess CD8+ effector cells, CD4 negative splenocytes were CFSE labeled and CFSE dilution was measured in CD8+ cells by flow cytometry (FIG. 3A). CD8+ lymphocyte activation was assessed by measuring TNFα (FIG. 3B). Also, CD4+ lymphocyte activation was assessed by measuring TNFα (FIG. 3C). […]

RENCA cells = test: RENCA cell growth in vitro; format: cell-based, mouse; settings: 0.002, 0.02, 0.2, or 2 μM, 48 hours
Experimental: That is, the tumor in the P60 treated tumor grew at the same rate as the saline treated mice. Further, RENCA cells (20×10^4/well) were seeded in 12 well plates and treated with PF or PC at 0.002, 0.02, 0.2, or 2 μM. […] The first approach involved depleting CD8+ lymphocytes, which are known to mediate antitumor immunity.

Compound: CSCC[C@H](NC(=O)[C@H](C)NC(=O)[C@H](Cc1ccccc1)NC(=O)[C@H](Cc1ccccc1)NC(=O)[C@@H]1CCCN1C(=O)[C@H](Cc1c[nH]c2ccccc12)NC(=O)[C@H](CCSC)NC(=O)[C@H](CCCCN)NC(=O)[C@H](CCCNC(=N)N)NC(=O)[C@H](Cc1ccccc1)NC(=O)[C@H](CO)NC(=O)[C@H](CCC(N)=O)NC(=O)[C@H](Cc1ccccc1)NC(=O)[C@H](CC(=O)O)NC(=O)[C@H](CCCNC(=N)N)NC(=O)CCOCCOCCOCCOCCNc1cccc2c1C(=O)N(C1CCC(=O)NC1=O)C2=O)C(=O)O (stereo partly shown) [PF, Pomalidomide-PEG4-RDFQSFRKMWPFFAM] ({X1-PEG4}-RDFQSFRKMWPFFAM-OH)
- FoxP3 positive CD4+ cells in peripheral blood, time course (FoxP3; serial blood draws after a single injection of PF): immediately dropped as measured on day 2, and slightly came up on day 8
- FoxP3 positive CD4+ cells in peripheral blood and spleen (FoxP3; single dose 0.1 mmole i.p., 72 hours later, peripheral decrease p<0.0008): decreased 3 days later in both spleen and peripheral blood
- duration of FoxP3 decrease after a single PF dose (FoxP3; spleen and peripheral lymphocytes): at least 8 days
- suppression of CD4+ effector lymphocyte activation by treated CD4+ cells (TNFα) (Tregs): less capable of suppressing the activation of CD4+ effector lymphocytes
- suppression of CD8+ lymphocyte activation by treated CD4+ lymphocytes (TNFα expression) (Tregs): less capable of suppressing
- suppression of CD8+ lymphocyte proliferation by treated CD4+ lymphocytes (CFSE dilution) (Tregs): less capable of suppressing
- RENCA growth in vitro (cell count) (RENCA cells): did not alter RENCA growth in vitro
